Molecular target: T1, Oxysterols receptor LXR-beta (Homo sapiens, UniProt P55055)
T1 sequence (P55055 whole entry): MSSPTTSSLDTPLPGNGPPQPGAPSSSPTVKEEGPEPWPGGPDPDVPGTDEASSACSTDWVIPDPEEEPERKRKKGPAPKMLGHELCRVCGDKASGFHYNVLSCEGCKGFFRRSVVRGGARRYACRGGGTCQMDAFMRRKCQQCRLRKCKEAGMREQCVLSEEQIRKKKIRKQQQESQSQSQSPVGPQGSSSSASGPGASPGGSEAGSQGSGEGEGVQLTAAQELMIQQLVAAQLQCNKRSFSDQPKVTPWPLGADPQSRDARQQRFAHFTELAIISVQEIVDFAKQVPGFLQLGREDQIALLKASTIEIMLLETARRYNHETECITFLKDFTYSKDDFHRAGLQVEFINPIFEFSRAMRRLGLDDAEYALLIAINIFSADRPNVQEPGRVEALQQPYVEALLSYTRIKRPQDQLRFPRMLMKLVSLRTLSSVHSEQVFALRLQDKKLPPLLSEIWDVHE
Experiment: HTRF Cofactor Peptide Recruitment Assay
Details: pH 7.5; 22 °C
Method: Polyhistidine-tagged human LXR ligand-binding domain was mixed with the test compound, biotin-SRC1 peptide, streptavidin-allophycocyanin, and europium labeled anti-polyhistidine antibody in reaction buffer, and the mixture was incubated in a 384-well assay plate format.

EC50: 230 nM
Structure (SMILES): CC(C)(C)OC(=O)n1c(-c2ccc(CCNS(=O)(=O)c3ccc(-c4ccccn4)s3)cc2)cc2ccccc21 [tert-butyl 2-[4-(2-{[5-(pyridin-2-yl)thiophene-2-]sulfonamido}ethyl)phenyl]-1H-indole-1-carboxylate]

— BindingDB's records for doi:10.1016/j.bmcl.2007.06.017 (Tanabe Research Laboratories Usa, 2007)
